Measured values reported in patent US9540691B2, “Assays and methods for selecting a treatment regimen for a subject with depression” (THE GENERAL HOSPITAL CORPORATION, priority 2011, dated 2017).
Where two headings read alike, the source gives them in different places.

Tested on: MDD patients carrying the indicated conditions
Conditions: with SSRI
Experimental: Folate levels are classified as either low (<=2.5 ng/ml) or normal; and homocysteine levels as either normal or elevated (>=[…]). The presence or absence of at least one […] allele for the MTHFR gene are entered as a dichotomous variable (present or absent). […] Using folate as an example predicator, the presence or absence of a low serum-folate level along with treatment assignment can be entered in a 2×2, factorial ANOVA, using depression improvement scores (baseline minus endpoint HAM-D-17 scores) as the dependant variable. […] Similar analyses (i.e. separate 2×2 ANOVA's) can be performed substituting the presence of low folate levels for the presence of other predictors as described herein. Similarly, the effect of other predictors can be indicated by the interaction term representing the potential modulating influence of those variables.
Particularly, specific genetic and biomarkers that were assessed include the following: • (a) BMI calculation of at least about 30 kg/m^2; • (b) an expression ratio of SAM/SAH smaller than 2.8 (e.g., 2.71) as measured in a plasma sample; • (c) a level of 4-HNE no less than 3.28 μg/mL (as measured in a plasma sample); • (d) presence of rare variants CT or TT at position 677 of SEQ ID NO: 1 corresponding to a portion of a genomic nucleic acid sequence of methylenetetrahydrofolate reductase (MTHFR) (abbreviated as “MTHFR 677” below); • (e) presence of rare variants AG or GG at position 2756 of SEQ ID NO: 2 corresponding to a portion of genomic nucleic acid sequence of methionine synthase (MTR) (abbreviated as “MTR 2756” below); and • (f) presence of rare variants AG or GG at position 66 of SEQ ID NO: 3 corresponding to a portion of genomic nucleic acid sequence of methionine synthase reductase (MTRR) (abbreviated as “MTRR 66” below).
The efficacy effect is determined by measuring the mean change in the HAMD-17 score and HAMD-28 score by the end of Phase I and Phase II, as compared to the baseline.

[1] = Phase II, interaction of BMI with the treatment
[2] = Phase II, interaction of HNE-his with the treatment
[3] = Phase II, interaction of SAM/SAH with the treatment
[4] = Pooled phases, 25 =< BMI < 30 kg/m^2 (18, 10)
[5] = Pooled phases, BMI < 25 (14, 7)

CN1c2c(nc(N)[nH]c2=O)NC[C@@H]1CNc1ccc(C(=O)N[C@@H](CCC(=O)O)C(=O)O)cc1 [6(S)-5-MTHF, 6(S)-5-methyltetrahydrofolate]
Effect, change in HAMD-28 score (Phase II, MTR 2756 AA and MTRR 66 AA): −8.000
Effect, change in HAMD-17 score (Phase II, MTR 2756 AA and SAM/SAH >= median (24,12)): 1.971
Effect, change in HAMD-28 score (Phase II, MTR 2756 AA and SAM/SAH >= median): 2.000
Effect, change in HAMD-28 score (Phase II, MTR 2756 AA): −0.446
Effect, change in HAMD-17 score (Phase II, MTR 2756 AG or GG and BMI >= 30 kg/m^2 (10,5)): −12.167
Effect, change in HAMD-28 score (Phase II, MTR 2756 AG or GG and BMI >= 30 kg/m^2): −13.000
Effect, change in HAMD-17 score (Phase II, MTR 2756 AG or GG and HNE-His >= median (13,7)): −8.417
Effect, change in HAMD-28 score (Phase II, MTR 2756 AG or GG and HNE-His >= median = 3.28 (plasma sample)): −9.500
Effect, change in HAMD-17 score (Phase II, MTR 2756 AG or GG and MTRR 66 AG or GG (15,7)): −4.667
Effect, change in HAMD-17 score (Phase II, MTR 2756 AG or GG and MTRR 66 AG or GG and BMI >= 30 kg/m^2 (8,4)): −11.000
Effect, change in HAMD-28 score (Phase II, MTR 2756 AG or GG and MTRR 66 AG or GG and BMI >= 30 kg/m^2): −12.000
Effect, change in HAMD-17 score (Phase II, MTR 2756 AG or GG and MTRR 66 AG or GG and HNE-His >= median (10,4)): −11.000
Effect, change in HAMD-28 score (Phase II, MTR 2756 AG or GG and MTRR 66 AG or GG and HNE-His >= median): −12.000
Effect, change in HAMD-17 score (Phase II, MTR 2756 AG or GG and MTRR 66 AG or GG and SAM/SAH < median (8,3)): −6.500
Effect, change in HAMD-28 score (Phase II, MTR 2756 AG or GG and MTRR 66 AG or GG and SAM/SAH < median = 2.71 (plasma sample)): −10.500
Effect, change in HAMD-28 score (Phase II, MTR 2756 AG or GG and MTRR 66 AG or GG): −6.583
Effect, change in HAMD-17 score (Phase II, MTR 2756 AG or GG and SAM/SAH < median (10,4)): −2.500
Effect, change in HAMD-28 score (Phase II, MTR 2756 AG or GG and SAM/SAH < median = 2.71 (plasma sample)): −7.500
Effect, change in HAMD-17 score (Phase II, MTR 2756 AG/GG (20,11)): −3.600
Effect, change in HAMD-28 score (Phase II, MTR 2756 AG/GG): −5.300
Effect, change in HAMD-17 score (Phase II, MTRR 66 AA and HNE-His < median (8,5)): −1.667
Effect, change in HAMD-28 score (Phase II, MTRR 66 AA and HNE-His < median = 3.28 (plasma sample)): −2.000
Effect, change in HAMD-17 score (Phase II, MTRR 66 AA and SAM/SAH >= median (9,6)): −3.000
Effect, change in HAMD-28 score (Phase II, MTRR 66 AA and SAM/SAH >= median): −3.333
Effect, change in HAMD-17 score (Phase II, MTRR 66 AG or GG and HNE-His >= median (24,11)): −3.500
Effect, change in HAMD-28 score (Phase II, MTRR 66 AG or GG and HNE-His >= median): −4.071
Effect, change in HAMD-17 score (Phase II, MTRR 66 AG or GG and SAM/SAH < median (24,10)): −6.190
Effect, change in HAMD-28 score (Phase II, MTRR 66 AG or GG and SAM/SAH < median = 2.71 (plasma sample)): −7.381
Effect, change in HAMD-17 score (Phase II, SAM/SAH < median and HNE-His >= median (19,7)): −9.000
Effect, change in HAMD-28 score (Phase II, SAM/SAH < median and HNE-His >= median): −12.000
Effect, change in HAMD-17 score (Phase II, SAM/SAH >= median and HNE-His < median (18,8)): 4.000
Effect, change in HAMD-28 score (Phase II, SAM/SAH >= median and HNE-His < median): 4.500
Effect, change in HAMD-17 score: BMI*treat [1]: 0.113
Effect, change in HAMD-28 score: BMI*treat [1]: 0.082
Effect, change in HAMD-17 score: HNE-his*treat [2]: 2.027
Effect, change in HAMD-28 score: HNE-his*treat [2]: 2.362
Effect, change in HAMD-17 score: SAM/SAH*treat [3]: 1.483
Effect, change in HAMD-28 score: SAM/SAH*treat (last line) [3]: 1.806
Effect, change in HAMD-17 score: baseHAMD-17*treat (Phase II, interaction of base HAMD-17 with the treatment): −0.249
Effect, change in HAMD-28 score: SAM/SAH*treat (first line under HAMD28) (Phase II, interaction with the treatment): 1.483
Effect, change in HAMD-17 score [4]: 3.331
Effect, change in HAMD-28 score [4]: 2.054
Effect, change in HAMD-17 score [5]: −1.248
Effect, change in HAMD-28 score [5]: −1.018
Effect, change in HAMD-17 score (Pooled phases, BMI < 30 kg/m^2 and HNE-His < median (19, 9)): 4.738
Effect, change in HAMD-28 score (Pooled phases, BMI < 30 kg/m^2 and HNE-His < median): 4.253
Effect, change in HAMD-17 score (Pooled phases, BMI < 30 kg/m^2 and SAM/SAH >= median (16,8)): 2.583
Effect, change in HAMD-28 score (Pooled phases, BMI < 30 kg/m^2 and SAM/SAH >= median): 2.906
Effect, change in HAMD-28 score (Pooled phases, BMI >= 30 kg/m^2 (40,21)): −4.660
Effect, change in HAMD-17 score (Pooled phases, BMI >= 30 kg/m^2 and HNE-His >= median (23, 11)): −5.420
Effect, change in HAMD-17 score (Pooled phases, BMI >= 30 kg/m^2 and SAM/SAH < median (21,9)): −7.302
Effect, change in HAMD-28 score (Pooled phases, BMI >= 30 kg/m^2 and SAM/SAH < median = 2.71 (plasma sample)): −7.572
Effect, change in HAMD-17 score (Pooled phases, MTHFR 677 CC and BMI < 30 kg/m^2 (17,8)): 1.356
Effect, change in HAMD-28 score (Pooled phases, MTHFR 677 CC and BMI < 30 kg/m^2): −0.234
Effect, change in HAMD-17 score (Pooled phases, MTHFR 677 CC and HNE-His < median (20,11)): −1.050
Effect, change in HAMD-28 score (Pooled phases, MTHFR 677 CC and HNE-His < median = 3.28 (plasma sample)): −1.340
